Experimental findings from patent US9850283B2, “Macrocyclic inhibitors of the PD-1/PD-L1 and CD80(B7-1)/PD-L1 protein/protein interactions” (BRISTOL-MYERS SQUIBB COMPANY, priority 2013, dated 2017) are described below.

For one assay, the target named is T1, Human PD-L1/PD-1 (Homo sapiens, UniProt Q9NZQ7).
T1 construct: made in house; host or cells: HEK293T
Kind of assay: HTRF PD-1-Ig/PD-L1-His binding assay (human PD-L1). The conditions noted are these: cluster symbol; read-out: HTRF IC50 cluster. In a few lines: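 Steps: truncated PD-1-Ig and PD-L1-His fusions are incubated in dPBS containing 0.1% (w/v) BSA and 0.05% (v/v) Tween-20. Detection antibodies are then added (Eu cryptate anti-Ig at 1 nM final, APC anti-His at 20 nM final), and time-resolved FRET is measured.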
In general terms: In TR-FRET formats the signal depends on donor and acceptor labels being close together.

The target of assay [1] is T2, LK35.2-hPD-L1 cells / PE-labeled PD-1-Ig (Homo sapiens, UniProt Q9NZQ7).
T2 construct: expressed in transfected cells; host or cells: LK35.2 mouse B cell line
T2 sequence (Q9NZQ7 19-290): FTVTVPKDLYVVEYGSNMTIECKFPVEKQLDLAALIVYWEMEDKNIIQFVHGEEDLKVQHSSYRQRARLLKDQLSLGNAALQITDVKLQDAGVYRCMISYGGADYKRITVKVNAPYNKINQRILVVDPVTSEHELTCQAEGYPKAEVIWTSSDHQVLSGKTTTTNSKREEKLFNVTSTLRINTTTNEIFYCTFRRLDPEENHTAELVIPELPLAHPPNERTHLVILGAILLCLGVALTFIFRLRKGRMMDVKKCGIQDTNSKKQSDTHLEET
Kind of assay: LK35.2-hPD-L1 cell binding high-content screening assay. Format: cell-based. Particulars: cluster symbol; cell line of CBA not given (LK35.2-hPD-L1 or 293T-hPD-L1); read-out: CBA IC50 cluster. The procedure, abridged: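 Fluorescent PD-1-Ig binding to PD-L1-expressing LK35.2 cells, imaged after washing. Conditions: 1 nM PE-PD-1-Ig, 37 °C, 1 h, RPMI with 10% fetal calf serum.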

Positions of bridges follow the written chain, without caps; N, C: chain ends. Non-standard residues stand in square brackets, D forms with d. Residues, ends and D or L forms follow the SMILES beside them. Ala(indol-4-yl) = N[C@@H](Cc1cccc2[nH]ccc12)C(=O)O; Tyr(3,5-Br2) = N[C@@H](Cc1cc(Br)c(O)c(Br)c1)C(=O)O; Trp(5-Cl) = N[C@@H](Cc1c[nH]c2ccc(Cl)cc12)C(=O)O; Phe(3-CF3) = N[C@@H](Cc1cccc(C(F)(F)F)c1)C(=O)O; Phe(4-CH2NH2) = NCc1ccc(C[C@H](N)C(=O)O)cc1; Tyr(3-I) = N[C@@H](Cc1ccc(O)c(I)c1)C(=O)O; Phe(3-Cl) = N[C@@H](Cc1cccc(Cl)c1)C(=O)O; Phe(4-Cl) = N[C@@H](Cc1ccc(Cl)cc1)C(=O)O; Phe(3-F) = N[C@@H](Cc1cccc(F)c1)C(=O)O; Phe(4-F) = N[C@@H](Cc1ccc(F)cc1)C(=O)O; Phe(4-Me) = Cc1ccc(C[C@H](N)C(=O)O)cc1; Phe(2-Me) = Cc1ccccc1C[C@H](N)C(=O)O; Bta = N[C@@H](Cc1csc2ccccc12)C(=O)O; NMeF = CN[C@@H](Cc1ccccc1)C(=O)O; NMeNle = CCCC[C@H](NC)C(=O)O; Sar = CNCC(=O)O

T1 sequence (Q9NZQ7 with tags, fused parts or gaps): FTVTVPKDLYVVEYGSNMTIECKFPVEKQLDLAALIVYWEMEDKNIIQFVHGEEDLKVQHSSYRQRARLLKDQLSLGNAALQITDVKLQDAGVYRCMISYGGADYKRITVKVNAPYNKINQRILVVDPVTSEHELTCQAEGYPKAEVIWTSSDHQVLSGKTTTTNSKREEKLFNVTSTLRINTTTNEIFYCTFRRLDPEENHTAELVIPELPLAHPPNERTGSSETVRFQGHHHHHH

The term IC50 denotes the concentration that inhibits the measured activity by half. As to `CCCC[C@H]1C(=O)N(C)CC(=O)N[C@@H](CC(=O)O)C(=O)N[C@@H](C(C)C)C(=O)N(C)[C@@H](Cc2ccccc2)C(=O)N[C@@H](Cc2ccc(O)cc2)C(=O)N(C)CC(=O)N[C@@H](Cc2c[nH]c3ccccc23)C(=O)N[C@@H](Cc2ccc(O)cc2)C(=O)N[C@@H](CC(C)C)C(=O)N[C@H](C(=O)NCC(N)=O)CSCC(=O)N[C@@H](Cc2ccccc2C)C(=O)N(C)[C@@H](Cc2ccccc2)C(=O)N1C` [Example 3105] ({CH2CO}-[Phe(2-Me)][NMeF][NMeNle][Sar]DV[NMeF]Y[Sar]WYLCG-NH2; thioether N-13), the IC50 at Human PD-L1/PD-1 was over 0.0305 µM; in assay [1] it was over 0.0743 µM.
The like results for `CCCC[C@H]1C(=O)N(C)CC(=O)N[C@@H](CC(=O)O)C(=O)N[C@@H](C(C)C)C(=O)N(C)[C@@H](Cc2ccccc2)C(=O)N[C@@H](Cc2ccc(O)cc2)C(=O)N(C)CC(=O)N[C@@H](Cc2c[nH]c3ccccc23)C(=O)N[C@@H](Cc2ccc(O)cc2)C(=O)N[C@@H](CC(C)C)C(=O)N[C@H](C(=O)NCC(N)=O)CSCC(=O)N[C@@H](Cc2cccc(C(F)(F)F)c2)C(=O)N(C)[C@@H](Cc2ccccc2)C(=O)N1C` [Example 3106] ({CH2CO}-[Phe(3-CF3)][NMeF][NMeNle][Sar]DV[NMeF]Y[Sar]WYLCG-NH2; thioether N-13) were, in that order, over 0.0305 µM and 0.00478 to 0.0729 µM.
The like results for `CCCC[C@H]1C(=O)N(C)CC(=O)N[C@@H](CC(=O)O)C(=O)N[C@@H](C(C)C)C(=O)N(C)[C@@H](Cc2ccccc2)C(=O)N[C@@H](Cc2ccc(O)cc2)C(=O)N(C)CC(=O)N[C@@H](Cc2c[nH]c3ccccc23)C(=O)N[C@@H](Cc2ccc(O)cc2)C(=O)N[C@@H](Cc2ccc(C)cc2)C(=O)N[C@H](C(=O)NCC(N)=O)CSCC(=O)N[C@@H](Cc2ccccc2)C(=O)N(C)[C@@H](Cc2ccccc2)C(=O)N1C` [Example 3107] ({CH2CO}-F[NMeF][NMeNle][Sar]DV[NMeF]Y[Sar]WY[Phe(4-Me)]CG-NH2; thioether N-13) were, in that order, 0.00676 to 0.0303 µM and 0.00478 to 0.0729 µM.
The like results for `CCCC[C@H]1C(=O)N(C)CC(=O)N[C@@H](CC(=O)O)C(=O)N[C@@H](C(C)C)C(=O)N(C)[C@@H](Cc2ccccc2)C(=O)N[C@@H](Cc2c[nH]c3ccc(Cl)cc23)C(=O)N(C)CC(=O)N[C@@H](Cc2c[nH]c3ccccc23)C(=O)N[C@@H](Cc2ccc(O)cc2)C(=O)N[C@@H](CC(C)C)C(=O)N[C@H](C(=O)NCC(N)=O)CSCC(=O)N[C@@H](Cc2ccccc2)C(=O)N(C)[C@@H](Cc2ccccc2)C(=O)N1C` [Example 3109] ({CH2CO}-F[NMeF][NMeNle][Sar]DV[NMeF][Trp(5-Cl)][Sar]WYLCG-NH2; thioether N-13) were, in that order, over 0.0305 µM and 0.00478 to 0.0729 µM.
Turning to `CCCC[C@H]1C(=O)N(C)CC(=O)N[C@@H](CC(=O)O)C(=O)N[C@@H](C(C)C)C(=O)N(C)[C@@H](Cc2ccccc2)C(=O)N[C@@H](Cc2cccc3[nH]ccc23)C(=O)N(C)CC(=O)N[C@@H](Cc2c[nH]c3ccccc23)C(=O)N[C@@H](Cc2ccc(O)cc2)C(=O)N[C@@H](CC(C)C)C(=O)N[C@H](C(=O)NCC(N)=O)CSCC(=O)N[C@@H](Cc2ccccc2)C(=O)N(C)[C@@H](Cc2ccccc2)C(=O)N1C` [Example 3110] ({CH2CO}-F[NMeF][NMeNle][Sar]DV[NMeF][Ala(indol-4-yl)][Sar]WYLCG-NH2; thioether N-13), the IC50 lay within 0.00676 to 0.0303 µM at Human PD-L1/PD-1 and 0.000158 to 0.00471 µM in assay [1].
Taken in the same sequence, the figures for `CCCC[C@H]1C(=O)N(C)CC(=O)N[C@@H](CC(=O)O)C(=O)N[C@@H](C(C)C)C(=O)N(C)[C@@H](Cc2ccccc2)C(=O)N[C@@H](Cc2ccc(O)c(I)c2)C(=O)N(C)CC(=O)N[C@@H](Cc2c[nH]c3ccccc23)C(=O)N[C@@H](Cc2ccc(O)cc2)C(=O)N[C@@H](CC(C)C)C(=O)N[C@H](C(=O)NCC(N)=O)CSCC(=O)N[C@@H](Cc2ccccc2)C(=O)N(C)[C@@H](Cc2ccccc2)C(=O)N1C` [Example 3111] ({CH2CO}-F[NMeF][NMeNle][Sar]DV[NMeF][Tyr(3-I)][Sar]WYLCG-NH2; thioether N-13) were over 0.0305 µM and 0.00478 to 0.0729 µM.
The like results for `CCCC[C@H]1C(=O)N(C)CC(=O)N[C@@H](CC(=O)O)C(=O)N[C@@H](C(C)C)C(=O)N(C)[C@@H](Cc2ccccc2)C(=O)N[C@@H](Cc2ccc(O)cc2)C(=O)N(C)CC(=O)N[C@@H](Cc2c[nH]c3ccccc23)C(=O)N[C@@H](Cc2cc(Br)c(O)c(Br)c2)C(=O)N[C@@H](CC(C)C)C(=O)N[C@H](C(=O)NCC(N)=O)CSCC(=O)N[C@@H](Cc2ccccc2)C(=O)N(C)[C@@H](Cc2ccccc2)C(=O)N1C` [Example 3112] ({CH2CO}-F[NMeF][NMeNle][Sar]DV[NMeF]Y[Sar]W[Tyr(3,5-Br2)]LCG-NH2; thioether N-13) were, in that order, over 0.0305 µM and over 0.0743 µM.
The like results for `CCCC[C@H]1C(=O)N(C)CC(=O)N[C@@H](CC(=O)O)C(=O)N[C@@H](C(C)C)C(=O)N(C)[C@@H](Cc2ccccc2)C(=O)N[C@@H](Cc2cc(Br)c(O)c(Br)c2)C(=O)N(C)CC(=O)N[C@@H](Cc2c[nH]c3ccccc23)C(=O)N[C@@H](Cc2ccc(O)cc2)C(=O)N[C@@H](CC(C)C)C(=O)N[C@H](C(=O)NCC(N)=O)CSCC(=O)N[C@@H](Cc2ccccc2)C(=O)N(C)[C@@H](Cc2ccccc2)C(=O)N1C` [Example 3113] ({CH2CO}-F[NMeF][NMeNle][Sar]DV[NMeF][Tyr(3,5-Br2)][Sar]WYLCG-NH2; thioether N-13) were, in that order, 0.00676 to 0.0303 µM and 0.00478 to 0.0729 µM.
On to `CCCC[C@H]1C(=O)N(C)CC(=O)N[C@@H](CC(=O)O)C(=O)N[C@@H](C(C)C)C(=O)N(C)[C@@H](Cc2ccccc2)C(=O)N[C@@H](Cc2ccc(O)cc2)C(=O)N(C)CC(=O)N[C@@H](Cc2csc3ccccc23)C(=O)N[C@@H](Cc2ccc(O)cc2)C(=O)N[C@@H](CC(C)C)C(=O)N[C@H](C(=O)NCC(N)=O)CSCC(=O)N[C@@H](Cc2cccc(Cl)c2)C(=O)N(C)[C@@H](Cc2ccccc2)C(=O)N1C` [Example 3114] ({CH2CO}-[Phe(3-Cl)][NMeF][NMeNle][Sar]DV[NMeF]Y[Sar][Bta]YLCG-NH2; thioether N-13), for which the IC50 on Human PD-L1/PD-1 fell in the range of 0.00676 to 0.0303 µM; in assay [1], 0.00478 to 0.0729 µM.
On to `CCCC[C@H]1C(=O)N(C)CC(=O)N[C@@H](CC(=O)O)C(=O)N[C@@H](C(C)C)C(=O)N(C)[C@@H](Cc2ccccc2)C(=O)N[C@@H](Cc2ccc(O)cc2)C(=O)N(C)CC(=O)N[C@@H](Cc2csc3ccccc23)C(=O)N[C@@H](Cc2ccc(O)cc2)C(=O)N[C@@H](CC(C)C)C(=O)N[C@H](C(=O)NCC(N)=O)CSCC(=O)N[C@@H](Cc2ccc(Cl)cc2)C(=O)N(C)[C@@H](Cc2ccccc2)C(=O)N1C` [Example 3115] ({CH2CO}-[Phe(4-Cl)][NMeF][NMeNle][Sar]DV[NMeF]Y[Sar][Bta]YLCG-NH2; thioether N-13), for which the figures for the IC50 (at Human PD-L1/PD-1; in assay [1]) were 0.00676 to 0.0303 µM and 0.00478 to 0.0729 µM, respectively.
The like results for `CCCC[C@H]1C(=O)N(C)CC(=O)N[C@@H](CC(=O)O)C(=O)N[C@@H](C(C)C)C(=O)N(C)[C@@H](Cc2ccccc2)C(=O)N[C@@H](Cc2ccc(O)cc2)C(=O)N(C)CC(=O)N[C@@H](Cc2csc3ccccc23)C(=O)N[C@@H](Cc2ccc(O)cc2)C(=O)N[C@@H](CC(C)C)C(=O)N[C@H](C(=O)NCC(N)=O)CSCC(=O)N[C@@H](Cc2ccc(F)cc2)C(=O)N(C)[C@@H](Cc2ccccc2)C(=O)N1C` [Example 3116] ({CH2CO}-[Phe(4-F)][NMeF][NMeNle][Sar]DV[NMeF]Y[Sar][Bta]YLCG-NH2; thioether N-13) were, in that order, 0.000385 to 0.00674 µM and 0.000158 to 0.00471 µM.
With `CCCC[C@H]1C(=O)N(C)CC(=O)N[C@@H](CC(=O)O)C(=O)N[C@@H](C(C)C)C(=O)N(C)[C@@H](Cc2ccccc2)C(=O)N[C@@H](Cc2ccc(O)cc2)C(=O)N(C)CC(=O)N[C@@H](Cc2csc3ccccc23)C(=O)N[C@@H](Cc2ccc(O)cc2)C(=O)N[C@@H](CC(C)C)C(=O)N[C@H](C(=O)NCC(N)=O)CSCC(=O)N[C@@H](Cc2cccc(F)c2)C(=O)N(C)[C@@H](Cc2ccccc2)C(=O)N1C` [Example 3117] ({CH2CO}-[Phe(3-F)][NMeF][NMeNle][Sar]DV[NMeF]Y[Sar][Bta]YLCG-NH2; thioether N-13), the IC50 on Human PD-L1/PD-1 was 0.00676 to 0.0303 µM; in assay [1] it was 0.00478 to 0.0729 µM.
The like results for `CCCC[C@H]1C(=O)N(C)CC(=O)N[C@@H](CC(=O)O)C(=O)N[C@@H](C(C)C)C(=O)N(C)[C@@H](Cc2ccccc2)C(=O)N[C@@H](Cc2ccc(CN)cc2)C(=O)N(C)CC(=O)N[C@@H](Cc2csc3ccccc23)C(=O)N[C@@H](Cc2ccc(O)cc2)C(=O)N[C@@H](CC(C)C)C(=O)N[C@H](C(=O)NCC(N)=O)CSCC(=O)N[C@@H](Cc2cccc(Cl)c2)C(=O)N(C)[C@@H](Cc2ccccc2)C(=O)N1C` [Example 3118] ({CH2CO}-[Phe(3-Cl)][NMeF][NMeNle][Sar]DV[NMeF][Phe(4-CH2NH2)][Sar][Bta]YLCG-NH2; thioether N-13) were, in that order, 0.00676 to 0.0303 µM and 0.00478 to 0.0729 µM.
The like results for `CCCC[C@H]1C(=O)N(C)CC(=O)N[C@@H](CC(=O)O)C(=O)N[C@@H](C(C)C)C(=O)N(C)[C@@H](Cc2ccccc2)C(=O)N[C@@H](Cc2ccc(CN)cc2)C(=O)N(C)CC(=O)N[C@@H](Cc2csc3ccccc23)C(=O)N[C@@H](Cc2ccc(O)cc2)C(=O)N[C@@H](CC(C)C)C(=O)N[C@H](C(=O)NCC(N)=O)CSCC(=O)N[C@@H](Cc2ccc(Cl)cc2)C(=O)N(C)[C@@H](Cc2ccccc2)C(=O)N1C` [Example 3119] ({CH2CO}-[Phe(4-Cl)][NMeF][NMeNle][Sar]DV[NMeF][Phe(4-CH2NH2)][Sar][Bta]YLCG-NH2; thioether N-13) were, in that order, 0.00676 to 0.0303 µM and 0.00478 to 0.0729 µM.
